Patent US20220160723A1, “PHARMACOLOGICAL MITIGATION OF LATE-STAGE TOXEMIA” (priority 2019, published 2022)
“Also recorded” adds a separate entry of the source. Where two headings read alike, the source gives them in different places.

Legend:
[1] = system: HBMEC monolayer; experiment: Transwell monolayer permeability (Evans blue dye diffusion); type: cell-based, human; details: for ET induced disruption of monolayer integrity: HBMEC in transwell inserts, ET 250 ng/ml, 24 h, inhibitor 50 μM (FIG. 2E, 3G)
[2] = system: ET-induced footpad swelling (edema); experiment: Mouse footpad swelling (edema) assay after ET injection; type: in vivo, mice; details: for protection against ET-induced footpad swelling (edema): in vivo mouse model, pre-treated mice, summary statement; for footpad swelling (edema) following ET injection: mice, 0.15 μg ET/paw (FIG. 5)
[3] = system: Human Brain Microvascular Endothelial cells (HBMEC); type: cell-based; details: for ET induced cortical actin rearrangement: HBMEC, 4 h; for ET-mediated actin remodeling / rearrangement: cultured endothelial cells (HBMEC), summary statement
[4] = system: Rac1; experiment: Rac1-GTP pull-down with PAK-Beads and western blot; type: cell-based, human; details: HBMEC, ET 250 ng/ml
Description: FIGS. 2A-2E show ET induced actin rearrangement is dependent on Rac1 activation. […] Whole cell lysates were incubated with PAK-Beads, which specifically bind to GTP-bound Rac1. Bead bound Rac1-GTP and total Rac1 levels in cell lysate were determined by western blot with anti-Rac1 antibody. ET induced significant increase in Rac1-GTP (i.e. active Rac1) levels (see FIG. 2B). […] Cells were fixed and stained with cell mask green to visualize cytoplasm. Cell area was quantified from 8 wells for each treatment («-number of cells) using automated image analysis software. […] MRMEC were grown to confluence in transwell inserts, and treated with ET (250 ng/ml) for 24h, in the presence or absence of Rac1 inhibitor NSC23766 (50 μM). Changes in monolayer permeability were assessed by assaying the diffusion of Evans blue dye from apical to basal chamber of transwell inserts. […] Data represent mean changes in monolayer permeability from 2 independent experiments. p value indicates standard deviation.
FIGS. 3A-3H show ET-mediated Rac1 activation and actin rearrangement is dependent on an early induction of IGF-1R, PI3K and MEK signaling. […] Activation of IGF-1R in ET˜ireated and control cells was assessed by monitoring the levels of IGF-1R phosphorylated at Tyrosine 1135 and 1136 relative to total IGF-1R in whole cell lysates by western blot. ET induced a rapid (within 10 minutes), but transient activation of IGF-1R. […] Cells were fixed and stained with CellMask green to visualize cytoplasm. Cell area was quantified from 8 wells for each treatment (n-number of cells) using automated image analysis software. […] Whole cell lysates were incubated with PAK-Beads, which specifically bind to GTP-bound Rac1 . Bead bound Rac1-GTP and total Rac1 levels in cell lysate were determined by western blot with anti-Rac 1 antibody. […] Total and phosphorylated […] (Thr 308 and Ser 473), as well as those of ERK (Thr 202 and Tyr 204) was determined by western blot. ET induced a rapid (within 10-20 minutes) phosphorylation of AKT and ERK. […] Changes in monolayer to permeability were assessed by assaying the diffusion of Evans blue dye from apical to basal chamber of transwell. […] Data represent mean changes in monolayer permeability from 2 independent experiments. p value indicates standard deviation. […] Whole cell lysates were incubated with PAK-Beads, which specifically bind to GTP-hound RacL Bead bound Rac1-GTP and total Rac1 levels in cell lysate were determined by western blot with anti-Rac1 antibody.

[5] = system: CFL1; experiment: Western blot of total and phosphorylated CFL1 (Serine 3); type: cell-based, human; details: HBMEC
Description: FIGS. 4A-4I show ET induced IGF-1R, MEK and Rac1 signaling activate (dephosphorylate) the actin depolymerizing protein coflin (CFL1). […] ET induced a significant decrease in phosphorylated CFL1. (see FIG. 4B). FIG. 4B show levels of phosphorylated CFL1 relative to total CFL1 quantified from 2 independent experiments. p values indicate standard deviation. […] Total and phosphorylated CFL1 (Serine 3) levels were determined by western blot. […] (see FIG. 4D). FIG. 4D show levels of phosphorylated CFL1 relative to total CFL1 in whole cell lysates from HBMEC treated with ET in the presence or absence of IGF-1R inhibitor AG1024 and quantified from 2 independent experiments. […] Total and phosphorylated CFL1 (Serine 3) levels were determined by western blot. […] Total and phosphorylated CFL1 (Serine 3) levels were determined by western blot. […] (see FIG. 4G). FIG. 4G show levels of phosphorylated CFL1 relative to total CFL1 in whole cell lysates from HBMEC treated with ET in the presence or absence of the Rac1 inhibitor NSC23766 and quantified from 2 independent experiments. p values indicate standard deviation. […] Activation (dephosphorylation) of SSH1 in ET-treated and control cells was assessed by monitoring the levels of SSHI phosphorylated at Serine 978 relative to total SSHI in whole cell lysates by western blot. SSHI phosphorylation was reduced relative to untreated control cells at 240 min after ET treatment. […] Total and phosphorylated CFL1 (Serine 3) levels were determined by western blot.

[6] = system: Human Brain Microvascular Endothelial cells (HBMEC); experiment: Medium throughput quantification of whole cell area (CellMask green); type: cell-based; details: ET 250 ng/ml, 4 h, 8 wells per treatment (FIG. 2D, 3C)
[7] = ET 250 ng/ml, phalloidin (FIG. 3B, 3F)
[8] = cultured HBMEC model, summary statement
[9] = ET 250 ng/ml, 4 h (FIG. 4C, 4E, 4I)

## CS(=O)(=O)N1CCN(Cc2cc3nc(-c4cccc5[nH]ncc45)nc(N4CCOCC4)c3s2)CC1 [GDC-0941, pictilisib]
[1]
  ET-mediated cell-cell barrier disruption: almost completely rescue
[2]
  protection against ET-induced footpad swelling (edema): near complete protection; also recorded: almost complete protection
[2]; pre-treatment 75 mg/kg
  footpad swelling (edema) following ET injection: consistently block

## O=C(NC[C@H](O)CO)c1ccncc1Nc1ccc(I)cc1F [AS703026]
[3]; [7]
  ET induced cortical actin rearrangement: significantly reduced
[3]
  ET-mediated actin remodeling / rearrangement: strongly inhibit; also recorded: almost completely rescue
[1]
  ET induced disruption of monolayer integrity: significantly reduced
[1]; [8]
  ET-mediated cell-cell barrier disruption: almost completely rescue
[4]; 4 h (FIG. 3H)
  ET induced Rac1 activation (Rac1-GTP): significantly inhibited
[5]; [9]
  ET induced CFL1 activation (dephosphorylation): significantly inhibited
[2]
  protection against ET-induced footpad swelling (edema): near complete protection; also recorded: almost complete protection
[2]; pre-treatment 33 mg/kg
  footpad swelling (edema) following ET injection: consistently block

## CCN(CC)CCCC(C)Nc1nc(C)cc(Nc2ccc3nc(C)cc(N)c3c2)n1.Cl.Cl.Cl (stereo not shown) [NSC23766, N(6)˜[2-[[4˜(diethylamino)-1-methylbutyl]amino]-6-methyl-4-pyrimidinyl]-2-methyl-4,6-quinolinediamine trihydrochloride]
[3]; ET 250 and 500 ng/ml, Alexa 488 phalloidin (FIG. 2C)
  ET induced cortical actin rearrangement: almost completely inhibited
[3]; trihydrochloride
  ET-mediated actin remodeling / rearrangement: strongly inhibit; also recorded: almost completely rescue
[6]
  ET induced cell area reduction: significantly reduced
[1]
  ET induced disruption of monolayer integrity: significantly reduced
[1]; [8]
  ET-mediated cell-cell barrier disruption: almost completely rescue
[4]; 4 h (FIG. 3D)
  ET induced Rac1 activation (Rac1-GTP): completely rescued
[5]; [9]
  ET induced CFL1 activation (dephosphorylation): significantly inhibited
[5]; ET 50, 100 and 250 ng/ml, 4 h (FIG. 4F)
  ET induced CFL1 activation (dephosphorylation): significantly inhibited
[2]; trihydrochloride
  protection against ET-induced footpad swelling (edema): near complete protection; also recorded: almost complete protection
[2]; pre-treatment 10 mg/kg
  footpad swelling (edema) following ET injection: consistently block

## CC(C)(C)c1cc(C(=O)/C(C#N)=N/Nc2cccc(Cl)c2)no1 [ES1-09]
[2]; pre-treatment 10 mg/kg
  footpad swelling (edema) following ET injection: consistently block

## CC(C)(C)c1cc(C=C(C#N)C#N)cc(Br)c1O [AG1024, 2-[(3-bromo-5˜iert-butyl-4-hydroxyphenyl)methylidene]propanedinitile]
[3]; [7]
  ET induced cortical actin rearrangement: almost completely inhibited
[3]
  ET-mediated actin remodeling / rearrangement: strongly inhibit; also recorded: almost completely rescue
[6]
  ET induced cell area reduction: completely .rescued
[1]; [8]
  ET-mediated cell-cell barrier disruption: almost completely rescue
[4]; 4 h (FIG. 3D)
  ET induced Rac1 activation (Rac1-GTP): completely rescued
[4]; 4 h (FIG. 3H)
  ET induced Rac1 activation (Rac1-GTP): significantly inhibited
[5]; [9]
  ET induced CFL1 activation (dephosphorylation): significantly inhibited
[2]
  protection against ET-induced footpad swelling (edema): near complete protection; also recorded: almost complete protection
[2]; pre-treatment 10 mg/kg
  footpad swelling (edema) following ET injection: consistently block
